Where no end group is shown, it is not given here.
Molecular target: T1, Nox2 oxidase (COS-Nox2 lysate) (Homo sapiens, UniProt P14598)
T1 construct: host or cells: COS 7 cells, stably transfected; cell lysate used
T1 sequence (P14598 1-390): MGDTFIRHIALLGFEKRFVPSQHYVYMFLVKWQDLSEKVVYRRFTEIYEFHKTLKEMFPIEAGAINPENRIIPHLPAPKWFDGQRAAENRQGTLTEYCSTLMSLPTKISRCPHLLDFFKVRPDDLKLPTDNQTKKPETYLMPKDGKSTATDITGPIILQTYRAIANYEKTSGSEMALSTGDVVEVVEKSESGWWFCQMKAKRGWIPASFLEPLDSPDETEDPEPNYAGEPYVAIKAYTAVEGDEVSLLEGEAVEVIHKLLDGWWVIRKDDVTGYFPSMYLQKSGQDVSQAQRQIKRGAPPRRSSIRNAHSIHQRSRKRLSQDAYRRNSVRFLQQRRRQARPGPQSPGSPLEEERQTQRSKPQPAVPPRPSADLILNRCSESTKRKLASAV
Experiment: EPR with spin probe CMH, O2- production in COS-Nox2 lysates
Format: biochemical
Settings: 10 μM peptide, vehicle 36330±2658
Protocol: To test this hypothesis, the inhibitory activity of Nox2ds was assessed in cell-free assays using reconstituted systems expressing either Nox1, 2 or 4 oxidase. Nox 2 oxidase was recapitulated by stably transfecting COS 7 cells with Nox2, p22phox, p47phox, and p67phox (aka COS-Nox2). Nox1 oxidase was obtained by transfecting COS 7 cells with Nox1, p22phox, NOXO1 and NOXA1 (COS-Nox1), and Nox 4 oxidase was regenerated by transfection of COS 7 cells with Nox4 and p22phox. […] Our new data support selectivity of Nox2ds peptide in differentiating the contribution of Nox2 vs. Nox1 and Nox4 NADPH oxidase and its potential clinical use in ameliorating cardiopulmonary diseases.
The spin probe 1-hydroxy-3-methoxycarbonyl-2,2,5,5-tetramethylpyrrolidine hydrochloride (CMH; Alexis Corp., San Diego, Calif., USA) was used to examine O2^− production in COS-Nox2 cell lysates using a Bruker eScan table-top EPR spectrometer (Bruker Biospin, USA). Superoxide production was measured in oxidase assay buffer (65 mM sodium phosphate buffer, pH 7.0, 1 mM EGTA, 10 μM FAD, 1 mM MgCl2, 2 mM NaN3) supplemented with 50 μM CMH. […] Analyses of the EPR spectra peak heights were used to quantify the amount of O2^− produced by the lysates and were compared with buffer-only control spectra or spectra in the presence of 10 μM Nox2ds, 10 μM Scrmb Nox2ds, or 150 U/ml SOD. […]

Q: Which “CM radical intensity (EPR, O2- production)” value does the source give for CSTRVRRQL-NH2 [Nox2ds, CSTRVRRQL] here?
A: The value was 18360±2666.
